The text below walks through data of patent publication US8293769B2, “CSF-1R inhibitors, compositions, and methods of use” (Novartis AG, priority 2008, dated 2012).

Assay [1] concerns the target T1, cKIT (Homo sapiens, UniProt P10721).
T1 construct: The kinase domain of cKIT was assayed in 50 mM Hepes; purchased Upstate 14-559
Nature of the assay: cKIT kinase in vitro biochemical assay (alphascreen). The note with it: tested at about 1 μM; read-out: CKIT percent inhibition. In general terms: In Alpha technology, singlet oxygen from a donor bead excites a nearby acceptor bead.

Assay [2] has as its target T2, PDGFRb (Homo sapiens, UniProt P09619).
T2 construct: The kinase domain of PDGFRβ was assayed in 50 mM Hepes; purchased Invitrogen P3082
Nature of the assay: PDGFRb kinase in vitro biochemical assay (alphascreen). The note with it: tested at about 1 μM; read-out: PDGF RK BETA percent inhibition.

Assay [3] relates to MNFS60 (murine AML cells). Description: Cell viability assay in MCSF dependent MNFS60 cells (Cell Titer Glo). The note with it: Mus musculus; tested at about 1 μM; MCSF 10 ng/mL, 72 hrs; read-out: CPEC50 MNFS60MCSF percent inhibition. The class given is cell-based. How it is done:
Cell viability was assessed by Cell Titer Glo, Promega. MNFS60 (murine AML cells) were seeded in TC treated 96-well plates at a density of 5,000 cells per well in RPMI-1640, 10% FBS, and 1% Penicillin Streptomycin prior to addition of compound. Test compounds were serially diluted (3 fold) in DMSO to 500× the final concentration. For each concentration of test compound, 2 μl (500×) aliquots of compound or 100% DMSO (control) were diluted in 500 μl of culture medium that contained 2× final concentration of growth factor MCSF for 2× concentration and then diluted 1× on the cells. Final concentration of MCSF is 10 ng/mL. Cells were incubated for 72 hrs at 37° C., 5% CO2. After the incubation 100 μl Cell Titer Glo is added to each well to determine viable cells. The assay was performed according to the manufacturer's instruction (Promega Corporation, Madison, Wis. USA). Each experimental condition was performed in triplicate. Raw data was imported in Abase and EC50s calculated with XL-fit data analysis software: Relative light units of wells that contained cells without MCSF in the media and as a consequence didn't grow were defined as 100% inhibited.
Background: Cellular ATP, detected with luciferase, serves as a proxy for viable cell number.

Assay [4] deals with T3, cytoplasmic domain of the human CSF-1R (Homo sapiens, UniProt P07333).
T3 construct: Recombinant protein corresponding to the cytoplasmic domain of the human CSF-1R; purchased Invitrogen Corporation, Carlsbad, Calif; PV3249
T3 sequence (P07333 539-972 limits assumed): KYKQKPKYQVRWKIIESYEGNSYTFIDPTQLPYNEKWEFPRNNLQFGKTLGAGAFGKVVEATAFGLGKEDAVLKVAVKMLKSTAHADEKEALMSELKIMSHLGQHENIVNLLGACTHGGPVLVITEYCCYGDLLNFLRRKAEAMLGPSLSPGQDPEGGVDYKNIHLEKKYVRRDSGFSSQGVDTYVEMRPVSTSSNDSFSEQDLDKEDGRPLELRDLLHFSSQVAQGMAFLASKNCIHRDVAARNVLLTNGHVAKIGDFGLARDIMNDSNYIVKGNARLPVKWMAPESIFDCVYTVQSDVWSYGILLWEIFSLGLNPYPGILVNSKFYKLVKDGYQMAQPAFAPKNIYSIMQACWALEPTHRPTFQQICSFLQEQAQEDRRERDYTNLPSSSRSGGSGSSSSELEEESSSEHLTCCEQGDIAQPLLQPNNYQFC
Nature of the assay: In vitro kinase assay for CSF-1R (AlphaScreen). Format: biochemical. The note with it: tested at about 1 μM; read-out: CSF1RK 1 percent inhibition. An outline of the steps:
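Recombinant CSF-1R cytoplasmic domain (4 nM) phosphorylated biotinylated peptide (0.05 μM) at 1.0 μM ATP in HEPES with Mg2+/Mn2+, 2 h at room temperature, compounds from 25 μM in 3-fold steps. AlphaScreen anti-phosphotyrosine PT66 detection; IC50 by non-linear regression.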

One may read the inhibition as the percentage by which the read-out fell short of the control.

T1 sequence (P10721 589-937 limits assumed): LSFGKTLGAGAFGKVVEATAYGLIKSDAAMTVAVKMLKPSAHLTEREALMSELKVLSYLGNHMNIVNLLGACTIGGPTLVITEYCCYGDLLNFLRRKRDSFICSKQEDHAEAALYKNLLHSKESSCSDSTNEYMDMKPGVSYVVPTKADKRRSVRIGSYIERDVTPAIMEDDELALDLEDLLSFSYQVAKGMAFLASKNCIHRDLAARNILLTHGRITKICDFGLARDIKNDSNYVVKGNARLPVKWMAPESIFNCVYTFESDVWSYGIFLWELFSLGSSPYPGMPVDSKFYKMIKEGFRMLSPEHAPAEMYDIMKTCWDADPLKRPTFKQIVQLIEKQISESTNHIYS
T2 sequence (P09619 600-962 limits assumed): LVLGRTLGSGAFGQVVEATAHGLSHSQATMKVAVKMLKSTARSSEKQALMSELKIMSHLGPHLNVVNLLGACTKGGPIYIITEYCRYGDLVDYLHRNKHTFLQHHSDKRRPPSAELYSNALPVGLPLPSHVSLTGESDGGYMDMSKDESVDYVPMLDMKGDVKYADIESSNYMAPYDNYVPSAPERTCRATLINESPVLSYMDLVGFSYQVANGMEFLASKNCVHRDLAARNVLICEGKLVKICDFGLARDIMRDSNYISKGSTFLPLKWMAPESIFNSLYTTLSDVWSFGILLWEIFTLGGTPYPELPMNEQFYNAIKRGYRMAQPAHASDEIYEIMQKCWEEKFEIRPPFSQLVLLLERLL

As to `Cn1ncc2c(Oc3ccc4nc(NCC5CCCCC5)sc4c3)ncnc21` [Compound 44, N-(cyclohexylmethyl)-6-(1-methyl-1H-pyrazolo[3,4-d]pyrimidin-4-yloxy)benzo[d]thiazol-2-amine], the inhibition at 1 µM in assay [1] turned out to be 14%; in assay [2], 19%; in assay [3], 0%; in assay [4], 99%.
For `Cn1cc(-c2cncc(Oc3ccc4nc(N[C@@H]5CCCC[C@H]5O)sc4c3)c2)cn1` [Compound 46, (1R,2R)-2-(6-(5-(1-methyl-1H-pyrazol-4-yl)pyridin-3-yloxy)benzo[d]thiazol-2-ylamino)cyclohexanol], the inhibition at 1 µM was found to be 60% in assay [1], 12% in assay [2], 100% in assay [3] and 100% in assay [4].
Turning to `Nc1ccc(-c2cncc(Oc3ccc4nc(N[C@@H]5CCCC[C@H]5O)sc4c3)c2)cn1` [Compound 47, (1R,2R)-2-(6-(6′-amino-3,3′-bipyridin-5-yloxy)benzo[d]thiazol-2-ylamino) cyclohexanol], the inhibition at 1 µM in assay [1] was determined as 63%; in assay [2] it was 1%; in assay [3], 100%; in assay [4] it was 100%.
Turning to `CNC(=O)c1ccc(Oc2ccc3nc(NCC4CCCCC4)sc3c2)cn1` [Compound 48, 5-(2-(cyclohexylmethylamino)benzo [d]thiazol-6-yloxy)-N-methylpicolinamide], the inhibition at 1 µM in assay [1] was determined as 22%; in assay [2], 8%; in assay [3], 0%; in assay [4], 96%.
The matching figures for `CNC(=O)c1cncc(Oc2ccc3nc(N[C@@H](C)C4CCCCC4)sc3c2)n1` [Compound 51, (S)-6-(2-(1-cyclohexylethylamino)benzo[d]thiazol-6-yloxy)-N-methylpyrazine-2-carboxamide]: 32%, 14%, 3% and 97%.
`CNC(=O)c1ccc(Oc2ccc3nc(N[C@@H](C)C4CCCCC4)sc3c2)cn1` [Compound 53, (S)-5-(2-(1-cyclohexylethylamino)benzo[d]thiazol-6-yloxy)-N-methylpicolinamide]: the inhibition at 1 µM in assay [1] was determined as 12%; in assay [2], 13%; in assay [3], 13%; in assay [4] it was 98%.
For `O[C@@H]1CCCC[C@H]1Nc1nc2ccc(Oc3cncc(-c4cncs4)c3)cc2s1` [Compound 70, (1R,2R)-2-(6-(5-(thiazol-5-yl)pyridin-3-yloxy)benzo[d]thiazol-2-ylamino) cyclohexanol], the inhibition at 1 µM in assay [1] came to 64%; in assay [2], 13%; in assay [3], 100%; in assay [4], 100%.
On to `N#Cc1ccc(-c2cncc(Oc3ccc4nc(N[C@@H]5CCCC[C@H]5O)sc4c3)c2)cn1` [Compound 73, 5′-(2-((1R,2R)-2-hydroxycyclohexylamino)benzo[d]thiazol-6-yloxy)-3,3′-bipyridine-6-carbonitrile], for which the inhibition at 1 µM in assay [1] stood at 44%; in assay [2], 3%; in assay [3] it was 23%; in assay [4], 99%.
Turning to `COc1cncc(-c2cncc(Oc3ccc4nc(N[C@@H]5CCCC[C@H]5O)sc4c3)c2)c1` [Compound 74, (1R,2R)-2-(6-(5′-methoxy-3,3′-bipyridin-5-yloxy)benzo [d]thiazol-2-ylamino) cyclohexanol], the inhibition at 1 µM in assay [1] is 59%; in assay [2], 1%; in assay [3] it was 100%; in assay [4], 100%.
For the compound `O=C(c1cncc(-c2cncc(Oc3ccc4nc(N[C@@H]5CCCC[C@H]5O)sc4c3)c2)c1)N1CCOCC1` [Compound 75, (5′-(2-((1R,2R)-2-hydroxycyclohexylamino)benzo[d]thiazol-6-yloxy)-3,3′-bipyridin-5-yl) (morpholino)methanone], the inhibition at 1 µM in assay [1] amounted to 28%; in assay [2], 5%; in assay [3], 33%; in assay [4], 100%.
With `CN(C)c1ncc(-c2cncc(Oc3ccc4nc(N[C@@H]5CCCC[C@H]5O)sc4c3)c2)cn1` [Compound 76, (1R,2R)-2-(6-(5-(2-(dimethylamino)pyrimidin-5-yl)pyridin-3-yloxy)benzo [d]thiazol-2-ylamino) cyclohexanol], the inhibition at 1 µM in assay [1] stood at 24%; in assay [2] it was 0%; in assay [3], 54%; in assay [4] it was 100%.
As to `CCn1cc(-c2cncc(Oc3ccc4nc(N[C@@H]5CCCC[C@H]5O)sc4c3)c2)cn1` [Compound 80, (1R,2R)-2-(6-(5-(1-ethyl-1H-pyrazol-4-yl)pyridin-3-yloxy)benzo[d]thiazol-2-ylamino)cyclohexanol], the inhibition at 1 µM in assay [1] was 66%; in assay [2], 0%; in assay [3] it was 100%; in assay [4] it was 100%.
On to `CCN(CC)CCn1cc(-c2cncc(Oc3ccc4nc(N[C@@H]5CCCC[C@H]5O)sc4c3)c2)cn1` [Compound 81, (1R,2R)-2-(6-(5-(1-(2-(diethylamino)ethyl)-1H-pyrazol-4-yl)pyridin-3-yloxy)benzo[d]thiazol-2-ylamino)cyclohexanol], for which the inhibition at 1 µM is 56% in assay [1], 0% in assay [2], 100% in assay [3] and 100% in assay [4].
With `O[C@@H]1CCCC[C@H]1Nc1nc2ccc(Oc3cncc(-c4cnccn4)c3)cc2s1` [Compound 84, (1R,2R)-2-(6-(5-(pyrazin-2-yl)pyridin-3-yloxy)benzo[d]thiazol-2-ylamnino) cyclohexanol], the inhibition at 1 µM was found to be 99% in assay [1], 100% in assay [2], 100% in assay [3] and 100% in assay [4].
Turning to `O[C@@H]1CCCC[C@H]1Nc1nc2ccc(Oc3cncc(C4=CCNCC4)c3)cc2s1` [Compound 85, (1R,2R)-2-(6-(5-(1,2,3,6-tetrahydropyridin-4-yl)pyridin-3-yloxy)benzo[d]thiazol-2-ylamino)cyclohexanol], the inhibition at 1 µM in assay [1] worked out at 13%; in assay [2], 2%; in assay [3], 13%; in assay [4], 96%.
Consider `O[C@@H]1CCCC[C@H]1Nc1nc2ccc(Oc3cncc(-c4cnn(CCN5CCOCC5)c4)n3)cc2s1` [Compound 95, (1R,2R)-2-(6-(6-(1-(2-morpholinoethyl)-1H-pyrazol-4-yl)pyrazin-2-yloxy)benzo[d]thiazol-2-ylamino)cyclohexanol], for which the inhibition at 1 µM in assay [1] was 18%; in assay [2], 8%; in assay [3] it was 47%; in assay [4] it was 100%.
The matching figures for `O[C@@H]1CCCC[C@H]1Nc1nc2ccc(Oc3cncc(-c4cccnc4)n3)cc2s1` [Compound 96, (1R,2R)-2-(6-(6-(pyridin-3-yl)pyrazin-2-yloxy)benzo[d]thiazol-2-ylamino) cyclohexanol]: 23%, 9%, 32% and 100%.
In the case of `C[C@H](Nc1nc2ccc(Oc3ccc(NO)nc3)cc2s1)C1CCCCC1` [Compound 101, (S)—N-(1-cyclohexylethyl)-6-(6-(hydroxyamino)pyridin-3-yloxy)benzo[d]thiazol-2-amine], the inhibition at 1 µM in assay [1] worked out at 74%; in assay [2] it was 31%; in assay [3], 58%; in assay [4], 100%.
